Legend:
Assay in all cases: Annexin V-FITC/PI staining, flow cytometry
Type in all cases: cell-based, human
SK-MEL-28 = tested on: SK-MEL-28
From the text: (§1) To discern whether cell death triggered by OOPs treatment occurred via apoptosis or necrosis under the experimental conditions applied in this study, live cells treated with OOPs were stained simultaneously with FITC-conjugated annexin V and propidium iodide (PI). Annexin V binds to phosphatidylserine (PS) translocating from the inner to the outer leaflet of the plasma membrane in apoptotic cells. Therefore, annexin V-FITC binding to PS labels live apoptotic cells with green FL. […] PS exposure to the extracellular space and cell membrane permeability were analyzed by flow cytometry as described in detail in the Experimental Section. […] OOP concentrations used were equal to the EC50 values for each cell line (Table 1). annexin V and PI staining discriminated between early- (i.e., annexin V +ve and PI −ve) and late-apoptotic cells (i.e., annexin V +ve and PI +ve), as well as between necrotic (i.e., annexin V −ve and PI +ve) and live (i.e., annexin V −ve and PI −ve) cells (Table 4).
(§2) Apoptosis and necrosis were assessed by double staining with annexin V-FITC and propidium iodide (PI) and were analyzed using flow cytometry (FACS). Human cancer cells were plated in 96-well culture plates in 100 μL of complete medium and were allowed to adhere overnight (~16 h). […] In detail, 0.5 μL of a 500× stock of each tested compound in DMSO was added directly into each well in a final volume of 250 μL culture medium and was gently mixed by pipetting. Control wells were prepared under the same experimental conditions by adding only DMSO at a final concentration of 0.2% (v/v). At the end of the treatment, the cells were detached by trypsinization, media with serum was added to deactivate trypsin, and the cells from three wells were pooled together by centrifugation (1000 rpm, 5 min, 24 °C), washed with cold PBS, centrifuged (1000 rpm, 5 min, 24 °C) and finally resuspended in cold 1× annexin V binding buffer (10 mM HEPES pH = 7.4, 150 mM NaCl, 2.5 mM CaCl2) at a density of 10^4 cells/mL. Staining was performed by incubating with annexin V- FITC and propidium iodide (PI; BioLegend) for 15 min at room temperature in the dark, according to the manufacturer’s instructions. […] Cells treated with Triton X-100 (0.25% (v/v)) for 5 min at 4 °C were used as controls for 100% permeabilization of the plasma membrane and maximum fluorescence staining with PI (positive control for cells in necrosis). The presence of live, apoptotic or necrotic cells was assessed with the FACS Calibur (Becton–Dickinson, San Jose, CA, USA). In total, 10,000 cells were analyzed per measurement and the acquired data were analyzed using the FlowJo V.10.0.8 software (Tree Star Inc., Ashland, OR, USA). Each condition was analyzed in duplicate, and the results presented are from 2 or 3 independent experiments.
(§3) Data showing OOPs’ apoptotic/necrotic effect were derived from two or three independent experiments and were presented as the means ± SE of the percentage (%) of both annexin V-positive cells (early apoptotic events) and % of annexin V/PI positive cells (late apoptotic events) over the whole cell population normalized to the corresponding events of the control cells, as determined using the FlowJo software.

MDA-MB 231 = tested on: MDA-MB 231
From the text: as §1, §2, §3

H1299 = details: 48 h at EC50
From the text: as §1
(§4) Apoptosis and necrosis were assessed by double staining with annexin V-FITC and propidium iodide (PI) and were analyzed using flow cytometry (FACS). Human cancer cells were plated in 96-well culture plates in 100 μL of complete medium and were allowed to adhere overnight (~16 h). […] In detail, 0.5 μL of a 500× stock of each tested compound in DMSO was added directly into each well in a final volume of 250 μL culture medium and was gently mixed by pipetting. Control wells were prepared under the same experimental conditions by adding only DMSO at a final concentration of 0.2% (v/v). At the end of the treatment, the cells were detached by trypsinization, media with serum was added to deactivate trypsin, and the cells from three wells were pooled together by centrifugation (1000 rpm, 5 min, 24 °C), washed with cold PBS, centrifuged (1000 rpm, 5 min, 24 °C) and finally resuspended in cold 1× annexin V binding buffer (10 mM HEPES pH = 7.4, 150 mM NaCl, 2.5 mM CaCl2) at a density of 10^4 cells/mL. Staining was performed by incubating with annexin V- FITC and propidium iodide (PI; BioLegend) for 15 min at room temperature in the dark, according to the manufacturer’s instructions. Negative control samples consisted of cells treated only with 0.2% (v/v) DMSO for the same incubation time length (i.e., 48 h). Cells treated with Triton X-100 (0.25% (v/v)) for 5 min at 4 °C were used as controls for 100% permeabilization of the plasma membrane and maximum fluorescence staining with PI (positive control for cells in necrosis). The presence of live, apoptotic or necrotic cells was assessed with the FACS Calibur (Becton–Dickinson, San Jose, CA, USA). In total, 10,000 cells were analyzed per measurement and the acquired data were analyzed using the FlowJo V.10.0.8 software (Tree Star Inc., Ashland, OR, USA). Each condition was analyzed in duplicate, and the results presented are from 2 or 3 independent experiments.
as §3

SK-BR-3 = details: 48 h at EC50
From the text: as §1, §4, §3

AGS = details: 48 h at EC50
From the text: as §1, §4, §3

PANC-1 = details: 48 h at EC50
From the text: as §1, §4, §3

| Molecule | % Cell Viability (SK-MEL-28; 48 h at EC50) [%] | Early Apoptotic (% ± S.D.) (SK-MEL-28; 48 h at EC50) [%] | Late Apoptotic (% ± S.D.) (SK-MEL-28; 48 h at EC50) | Total Apoptotic (%) (SK-MEL-28; 48 h at EC50) | % Cell Viability (MDA-MB 231; 48 h at EC50) [%] | Early Apoptotic (% ± S.D.) (MDA-MB 231; 48 h at EC50) [%] | Late Apoptotic (% ± S.D.) (MDA-MB 231; 48 h at EC50) [%] | Total Apoptotic (%) (MDA-MB 231; 48 h at EC50) | % Cell Viability (SK-BR-3) [%] | Early Apoptotic (% ± S.D.) (SK-BR-3) [%] | Late Apoptotic (% ± S.D.) (SK-BR-3) | Total Apoptotic (%) (SK-BR-3) | % Cell Viability (AGS) [%] | Early Apoptotic (% ± S.D.) (AGS) [%] | Late Apoptotic (% ± S.D.) (AGS) [%] | Total Apoptotic (%) (AGS) | % Cell Viability (PANC-1) [%] | Early Apoptotic (% ± S.D.) (PANC-1) [%] | Late Apoptotic (% ± S.D.) (PANC-1) | Total Apoptotic (%) (PANC-1) | other results |
| --- | --- | --- | --- | --- | --- | --- | --- | --- | --- | --- | --- | --- | --- | --- | --- | --- | --- | --- | --- | --- | --- |
| C/C=C(/C=O)[C@@H](CC=O)CC(=O)OCCc1ccc(O)c(O)c1 [compound 2, oleacein] | 76 | 5.87 ± 1.1 | No L.A. | 5.87 ± 1.1 | 73 | 1.89 ± 0.03 | 1.49 ± 0.3 | 3.38 ± 0.2 | 60 | 5.78 ± 0.9 | No L.A. | 5.78 ± 0.9 | 41 | 10.00 ± 1.3 | 4.55 ± 1.8 | 14.55 ± 3.1 | 58 | 4.39 ± 1.8 | No L.A. | 4.39 ± 1.8 | % Cell Viability (SK-MEL-28; 72 h at EC50): 72%; Early Apoptotic (% ± S.D.) (SK-MEL-28; 72 h at EC50): 6.70 ± 1.0%; Late Apoptotic (% ± S.D.) (SK-MEL-28; 72 h at EC50): 1.34 ± 0.3%; Total Apoptotic (%) (SK-MEL-28; 72 h at EC50): 8.04 ± 0.7%; % Cell Viability (MDA-MB 231; 72 h at EC50): 70%; Early Apoptotic (% ± S.D.) (MDA-MB 231; 72 h at EC50): 3.65 ± 0.5%; Late Apoptotic (% ± S.D.) (MDA-MB 231; 72 h at EC50): 1.64 ± 0.5%; Total Apoptotic (%) (MDA-MB 231; 72 h at EC50): 5.29 ± 1.0%; % Cell Viability (H1299): 40%; Early Apoptotic (% ± S.D.) (H1299): 5.96 ± 1.6%; Late Apoptotic (% ± S.D.) (H1299): 3.07 ± 1.8%; Total Apoptotic (%) (H1299): 9.03 ± 0.2% |
| C/C=C(/C=O)[C@@H](CC=O)CC(=O)OCCc1ccc(O)cc1 [compound 1, oleocanthal] | 68 | 4.10 ± 0.2 | 2.47 ± 0.7% | 6.57 ± 0.5 | 85 | 1.19 ± 0.01 | 1.38 ± 0.1 | 2.56 ± 0.1 | 59 | 7.45 ± 4.4 | 1.26 ± 0.7% | 8.71 ± 5.1 | 33 | 18.42 ± 4.4 | 4.94 ± 3.1 | 23.36 ± 1.4 | 60 | 4.47 ± 0.8 | No L.A. | 4.47 ± 0.8 | % Cell Viability (H1299): 57%; Early Apoptotic (% ± S.D.) (H1299): 4.77 ± 0.9%; Late Apoptotic (% ± S.D.) (H1299): 7.27 ± 0.2% |
| ligstroside aglycone [4a,b] | 82 | 1.86 ± 0.8 | No L.A. | 1.86 ± 0.8 |  |  |  |  | 87 | 1.30 ± 0.3 | No L.A. | 1.30 ± 0.3 | 36 | 16.03 ± 0.8 | 7.77 ± 1.8 | 23.79 ± 2.6 | 34 | 12.37 ± 2.7 | 4.42 ± 0.4% | 16.78 ± 3.1 |  |
| COC(=O)C1=COC(C)[C@@H](C=O)[C@@H]1CC(=O)OCCc1ccc(O)c(O)c1 (mixture of isomers) [3a,b, oleuropein aglycone] | 68 | 8.33 ± 1.9 | 4.91 ± 1.7% | 13.24 ± 3.7 | 69 | 4.17± 0.4 | 3.87 ± 3.7 | 8.04 ± 4.1 | 59 | 7.63 ± 1.9 | No L.A. | 7.63 ± 1.9 | 31 | 19.40 ± 0.6 | 8.08 ± 2.0 | 27.48 ± 1.4 | 40 | 8.52 ± 2.3 | 3.01 ± 2.0% | 11.52 ± 4.3 | % Cell Viability (H1299): 40%; Early Apoptotic (% ± S.D.) (H1299): 9.14 ± 3.1%; Late Apoptotic (% ± S.D.) (H1299): 5.44 ± 2.2%; Total Apoptotic (%) (H1299): 14.58 ± 5.3% |
